Experimental data reported in patent publication US9266869B2, “Substituted dialkyl(oxido)-lambda4-sulfanylidene nicotinamide derivatives as kinase inhibitors” (Allergan, Inc., priority 2013, dated 2016).

Assays:
[1] = molecular target: T1, PDGFRβ (Homo sapiens (Human), UniProt P09619); test: PDGFRβ Kinase Assay; assay type: biochemical; conditions: purified cytoplasmic domain PDGFR-b protein, 36 μM ATP; read-out: PDGFRβ Enzyme Assay (IC50 nM)
Protocol: Biochemical PDGFRβ kinase assays were performed in 96 well microtiter plates that were coated overnight with 75 μg of poly-Glu-Tyr (4:1) in 10 mM Phosphate Buffered Saline (PBS), pH 7.4.
(§1) PBS-T prior to starting the reaction. Reactions were carried out in 100 μL reaction volumes containing 36 μM ATP in kinase buffer (50 mM Hepes buffer pH 7.4, 20 mM MgCl2, 0.1 mM MnCl2 and 0.2 mM Na3VO4). […] Reactions were initiated by the addition 20 ul per well of kinase buffer containing 200-300 ng purified cytoplasmic domain PDGFR-b protein (Millipore). Following a 60 minute incubation at 30° C., the reactions were washed 2 mls per well PBS-T. 100 μl of a monoclonal anti-phosphotyrosine antibody-peroxidase conjugate diluted 1:10,000 in PBS-T was added to the wells for 30 minutes. Following a 2 mls per well wash with PBS-Tween-20, 100 μl of O-Phenylenediamine Dihydrochloride in phosphate-citrate buffer, containing urea hydrogen peroxide, was added to the wells for 7-10 minutes as a colorimetric substrate for the peroxidase. […] IC50 values for compound inhibition were calculated directly from graphs of optical density (arbitrary units) versus compound concentration following subtraction of blank values.
Target sequence in this assay (P09619 554-1106): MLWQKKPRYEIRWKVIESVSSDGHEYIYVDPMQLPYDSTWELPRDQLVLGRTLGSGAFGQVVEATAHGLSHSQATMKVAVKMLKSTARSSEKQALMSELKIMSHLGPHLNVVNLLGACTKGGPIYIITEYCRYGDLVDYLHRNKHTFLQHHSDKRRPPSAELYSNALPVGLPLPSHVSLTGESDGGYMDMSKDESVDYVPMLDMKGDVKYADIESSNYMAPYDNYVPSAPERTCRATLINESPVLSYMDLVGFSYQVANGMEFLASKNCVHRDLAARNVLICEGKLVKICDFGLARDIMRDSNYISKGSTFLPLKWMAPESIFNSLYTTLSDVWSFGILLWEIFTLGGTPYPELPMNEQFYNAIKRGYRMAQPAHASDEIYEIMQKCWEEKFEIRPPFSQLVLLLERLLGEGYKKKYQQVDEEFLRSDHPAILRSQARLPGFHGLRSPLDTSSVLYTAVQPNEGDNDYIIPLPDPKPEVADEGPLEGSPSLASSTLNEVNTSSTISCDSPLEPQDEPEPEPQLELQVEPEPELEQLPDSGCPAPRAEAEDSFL

[2] = system: VEGF permeability model; test: VEGF permeability model, intravitreal injection; assay type: in vivo; conditions: dosed by intravitreal injection
[3] = molecular target: VEGFR2 (KDR) (Homo sapiens (Human), UniProt P35968); test: VEGFR2 Kinase Assay; assay type: biochemical; conditions: purified cytoplasmic domain KDR protein, 2.7 μM ATP; read-out: VEGFR2 Enzyme Assay (IC50 nM)
Protocol: as §1, with “VEGFR2 Kinase Assay Biochemical KDR kinase assays were performed in 96 well microtiter plates that were coated overnight with 75 μg/well of poly-Glu-[…]:1) in 10 mM Phosphate Buffered Saline (PBS), pH 7.4. […]” for “PBS-T prior to starting the reaction.”, “2.7” for “36”, “KDR” for “PDGFR-b”, “(BPS Bioscience, San Diego, Calif.).” for “(Millipore).”, “15” for “60”, “0-Phenylenediamine” for “O-Phenylenediamine”

[4] = molecular target: T1, PDGFRβ; test: PDGFRβ Cellular Assay (PDGF-induced intracellular calcium, FLIPR, NHDF-Ad); assay type: cell-based; conditions: PDGF-BB stimulation (30 ng/mL)
Protocol: (§2) Automated FLIPR (Fluorometric Imaging Plate Reader) technology was used to screen for inhibitors of PDGF-induced increases in intracellular calcium levels in fluorescent dye loaded endothelial cells. NHDF-Ad (Normal Human Dermal Fibroblasts, Adult; Lonza) were seeded in 384-well fibronectin coated black-walled plates overnight @ 37° C./5% CO2. Cells were loaded with calcium indicator Fluo-4 for 45 minutes at 37° C. Cells were washed 2 times (Elx405, Biotek Instruments) to remove extracellular dye. For screening, cells were pre-incubated with test agents for 30 minutes, at a single concentration (10 uM) or at concentrations ranging from 0.0001 to 10.0 uM followed by PDGF-BB stimulation (30 ng/mL). Changes in fluorescence at 516 nm were measured simultaneously in all 384 wells using a cooled CCD camera. Data were generated by determining max-min fluorescence levels for unstimulated, stimulated, and drug treated samples. IC50 values for test compounds were calculated from % inhibition of PDGF-BB stimulated responses in the absence of inhibitor.
Target sequence in this assay (P09619 33-1106): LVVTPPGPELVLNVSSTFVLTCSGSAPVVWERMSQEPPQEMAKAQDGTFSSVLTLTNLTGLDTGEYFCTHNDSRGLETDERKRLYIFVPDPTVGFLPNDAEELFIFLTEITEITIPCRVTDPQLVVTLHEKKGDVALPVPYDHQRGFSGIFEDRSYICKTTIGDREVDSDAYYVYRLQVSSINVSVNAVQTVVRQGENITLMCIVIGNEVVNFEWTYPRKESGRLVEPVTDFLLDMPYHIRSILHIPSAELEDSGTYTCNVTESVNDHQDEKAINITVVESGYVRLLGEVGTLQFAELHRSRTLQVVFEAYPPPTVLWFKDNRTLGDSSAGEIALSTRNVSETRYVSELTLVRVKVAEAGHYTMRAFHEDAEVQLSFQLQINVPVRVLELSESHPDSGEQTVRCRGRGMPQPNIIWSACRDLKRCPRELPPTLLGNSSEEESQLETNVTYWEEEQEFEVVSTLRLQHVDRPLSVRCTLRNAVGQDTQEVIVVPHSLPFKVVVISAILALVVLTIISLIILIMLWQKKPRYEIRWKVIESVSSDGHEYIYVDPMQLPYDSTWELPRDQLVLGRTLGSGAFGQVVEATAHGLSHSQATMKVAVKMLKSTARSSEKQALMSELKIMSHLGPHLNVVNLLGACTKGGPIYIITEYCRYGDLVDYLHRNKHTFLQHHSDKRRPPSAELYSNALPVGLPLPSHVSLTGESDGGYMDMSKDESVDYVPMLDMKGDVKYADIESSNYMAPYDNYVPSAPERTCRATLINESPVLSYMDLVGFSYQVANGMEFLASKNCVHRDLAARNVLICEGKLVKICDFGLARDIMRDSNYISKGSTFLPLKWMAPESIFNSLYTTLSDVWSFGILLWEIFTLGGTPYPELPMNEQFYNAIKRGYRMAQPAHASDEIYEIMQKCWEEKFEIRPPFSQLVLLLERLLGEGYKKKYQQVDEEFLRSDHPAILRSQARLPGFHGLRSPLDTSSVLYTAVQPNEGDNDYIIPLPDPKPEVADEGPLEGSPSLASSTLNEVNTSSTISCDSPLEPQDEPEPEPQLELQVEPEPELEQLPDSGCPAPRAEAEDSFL

[5] = molecular target: VEGFR2 (Homo sapiens (Human), UniProt P35968); test: VEGFR2 Cellular Assay (VEGF induced intracellular calcium, FLIPR, HUVEC); assay type: cell-based; conditions: VEGF165 stimulation (10 ng/mL)
Protocol: as §2, with “VEGFR2 Cellular Assay Automated” for “Automated”, “of VEGF induced” for “of PDGF-induced”, “cells. HUVEC (human umbilical vein endothelial cells) (Clonetics)” for “cells. NHDF-Ad (Normal Human Dermal Fibroblasts, Adult; Lonza)”, “by VEGF165” for “by PDGF-BB”, “stimulation (10” for “stimulation (30”, “of VEGF” for “of PDGF-BB”

VEGFR2 (KDR), sequence (P35968 786-1356): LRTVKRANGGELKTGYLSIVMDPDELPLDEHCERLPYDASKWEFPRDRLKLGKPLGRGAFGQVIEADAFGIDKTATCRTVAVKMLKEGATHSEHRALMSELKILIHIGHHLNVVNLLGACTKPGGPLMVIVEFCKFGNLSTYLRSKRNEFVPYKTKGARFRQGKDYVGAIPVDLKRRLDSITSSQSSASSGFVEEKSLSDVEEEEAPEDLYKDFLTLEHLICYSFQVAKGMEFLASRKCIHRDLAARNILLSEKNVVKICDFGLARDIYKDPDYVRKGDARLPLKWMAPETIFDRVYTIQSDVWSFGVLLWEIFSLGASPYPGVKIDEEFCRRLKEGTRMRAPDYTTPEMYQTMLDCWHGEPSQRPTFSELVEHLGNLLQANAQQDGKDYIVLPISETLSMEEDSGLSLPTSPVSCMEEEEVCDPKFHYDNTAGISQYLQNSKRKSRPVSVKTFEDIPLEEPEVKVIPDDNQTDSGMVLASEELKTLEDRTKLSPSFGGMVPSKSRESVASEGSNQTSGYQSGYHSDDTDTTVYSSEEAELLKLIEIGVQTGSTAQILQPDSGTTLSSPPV
VEGFR2, sequence (P35968 20-1356): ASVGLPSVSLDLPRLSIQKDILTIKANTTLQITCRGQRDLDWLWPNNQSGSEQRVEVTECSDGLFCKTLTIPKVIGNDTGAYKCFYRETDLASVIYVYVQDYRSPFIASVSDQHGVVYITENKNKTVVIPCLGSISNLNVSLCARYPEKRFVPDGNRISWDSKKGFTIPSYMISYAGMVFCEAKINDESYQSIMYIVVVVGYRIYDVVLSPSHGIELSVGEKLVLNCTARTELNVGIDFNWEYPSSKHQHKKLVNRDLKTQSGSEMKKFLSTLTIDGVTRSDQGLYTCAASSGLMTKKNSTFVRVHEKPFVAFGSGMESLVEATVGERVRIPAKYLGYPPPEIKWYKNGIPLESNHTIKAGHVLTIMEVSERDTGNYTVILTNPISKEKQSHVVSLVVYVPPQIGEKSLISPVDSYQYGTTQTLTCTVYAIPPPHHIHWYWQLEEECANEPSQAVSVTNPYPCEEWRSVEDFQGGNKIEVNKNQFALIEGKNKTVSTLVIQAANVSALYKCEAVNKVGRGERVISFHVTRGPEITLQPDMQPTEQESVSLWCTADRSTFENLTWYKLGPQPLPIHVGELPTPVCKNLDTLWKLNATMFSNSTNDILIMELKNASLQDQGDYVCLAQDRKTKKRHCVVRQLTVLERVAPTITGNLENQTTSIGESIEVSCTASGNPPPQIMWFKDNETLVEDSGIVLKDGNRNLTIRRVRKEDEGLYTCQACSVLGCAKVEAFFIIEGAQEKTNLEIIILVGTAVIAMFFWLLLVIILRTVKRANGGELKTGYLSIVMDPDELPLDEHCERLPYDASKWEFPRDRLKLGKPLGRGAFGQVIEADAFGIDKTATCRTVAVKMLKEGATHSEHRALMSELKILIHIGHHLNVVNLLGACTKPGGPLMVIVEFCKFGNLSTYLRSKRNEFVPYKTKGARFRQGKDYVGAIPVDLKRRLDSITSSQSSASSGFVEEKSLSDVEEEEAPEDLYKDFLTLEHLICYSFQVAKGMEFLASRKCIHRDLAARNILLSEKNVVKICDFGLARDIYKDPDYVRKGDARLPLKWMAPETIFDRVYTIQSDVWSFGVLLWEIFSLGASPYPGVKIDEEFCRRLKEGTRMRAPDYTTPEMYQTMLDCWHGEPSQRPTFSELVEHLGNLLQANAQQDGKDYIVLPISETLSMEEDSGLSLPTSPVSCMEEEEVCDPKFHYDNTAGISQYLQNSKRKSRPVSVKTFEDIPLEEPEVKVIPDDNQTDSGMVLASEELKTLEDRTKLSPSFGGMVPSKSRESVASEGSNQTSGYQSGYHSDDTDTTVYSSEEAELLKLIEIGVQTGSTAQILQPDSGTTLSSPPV

IC50 [1]: 15 nM
in vivo efficacy in the VEGF permeability model [2]: good in vivo efficacy
IC50 [3]: 7 nM
IC50 [4]: 13 nM
IC50 [5]: 2 nM
Structure (SMILES): COC(=O)CCCCS(C)(=O)=NC(=O)c1cnc(N)c(C#Cc2cccc(C(=O)Nc3cccc(C)c3)c2)c1 (centres unmarked) [Example 34, Methyl 5-[N-({6-amino-5-[(3-{[(3-methylphenyl)amino]carbonyl}phenyl)ethynyl]pyridin-3-yl}carbonyl)-S-methylsulfonimidoyl]pentanoate]
